Source: patent publication US6331636A, “Therapeutically useful 2-aminotetralin derivatives” (priority 1992, dated 2001)
Counter-ions that a name gives are not always drawn.

What was measured:
[1] = Hypothermia in mice after subcutaneous injection; assay type: in vivo; conditions: Mus musculus, sc, dose depressing body temperature by 2° C. in two of four mice
Protocol: Starting with a dose of 30 mg/kg, four mice are injected subcutaneously with test compound. Twenty minutes later, the number of animals whose body temperature has decreased by 2° C. or more are counted. […] The time for last statistically significant drug affect on mean body temperature is indicated in minutes. […] Potency is given as mg/kg ED50 (dose required to depress temperature in two of four mice) as measured by Spearman-Karber statistics.

[2] = cited from earlier work
[3] = test system: 5-HT receptor; conditions: J. Med. Chem., 30, 2105 (1987); cited from earlier work
[4] = test system: dopamine receptors; conditions: background; cited from earlier work
[5] = background, cited from earlier work

C=CCN[C@H]1CCc2cccc(OC)c2[C@H]1CC=C (relative stereo) [Example 26, Compound 1, Cis-(±)-1,2,3,4-Tetrahydro-8-methoxy-N,1-di-(2-pro-penyl)-2-naphthalenamine Hydrochloride]
ED50 [1]: 2.31 mg/kg

CN(C)C1CCc2ccc(O)cc2C1(C)C (stereo not drawn) [1,1-Dimethyl-2-(N,N-dimethylamino)-7-hydroxytetralin]
analgesic and intestinal activity ([2]; Chem. Ab., 79: 146294b): analgesic and intestinal movement accelerating actions

COc1cccc2c1CCC(NC1CC1)C2C (stereo not drawn) [1-methyl-2-(cyclopropylamino)-5-methoxytetralin]
local anesthetic activity ([2]; J. Pharm. Sci., 67, 880-82 (1978)): local anesthetic activity

CCCN(CCC)C1CCc2cccc(O)c2C1C (stereo not drawn) [8-hydroxy-1-methyl-2-(di-n-propylamino)tetralins]
5-HT receptor agonism [3]: 5-HT receptor agonists

O=C1CC2(CCCC2)CC(=O)N1CCCCN1CCN(c2ncccn2)CC1 [Buspirone]
dopamine receptor activity [4]: antagonizes dopamine receptors at the same dose it stimulates 5-HT1A receptors

CC1(C)CC(=O)N(CCCCN2CCN(c3ncccn3)CC2)C(=O)C1 [Gepirone]
dopamine receptor activity [4]: also has dopamine antagonist properties
anxiolytic / anti-anxiety activity ([5]; clinical): clinically demonstrated anti-anxiety activities
effect on depressive endpoints ([5]; some patients): ameliorative effects on some depressive endpoints in some patients

CN1CCc2cccc3c2[C@H]1Cc1ccc(O)c(O)c1-3 [apomorphine]
dopamine receptor activity [4]: able to activate the dopamine autoreceptors as well as the post synaptic dopamine receptors
